Broadly, the IC50 is the point on the concentration scale where inhibition reaches its midpoint. What is called Cmax is the maximum level reached in the sampled fluid or tissue.

Our source for the IC50 and Cmax values is ChEMBL document CHEMBL5226333, “Targeting Autophagy-Related Epigenetic Regulators for Cancer Drug Discovery” (J Med Chem, 2021).

The target of data set [1] is Histone-lysine N-methyltransferase EZH2 (Homo sapiens, UniProt Q15910). The data set can be described thus: Inhibition of EZH2 (unknown origin) in PRC2 complex using H3 (1 to 24 residues) and 3H-SAM as substrate incubated for 1 hrs by Scintillation proximity assay. A general note: SPA uses beads or plates that emit light when radiolabelled molecules are held near them.
Sequence of Histone-lysine N-methyltransferase EZH2 (Q15910 whole entry, the tested form may be a part): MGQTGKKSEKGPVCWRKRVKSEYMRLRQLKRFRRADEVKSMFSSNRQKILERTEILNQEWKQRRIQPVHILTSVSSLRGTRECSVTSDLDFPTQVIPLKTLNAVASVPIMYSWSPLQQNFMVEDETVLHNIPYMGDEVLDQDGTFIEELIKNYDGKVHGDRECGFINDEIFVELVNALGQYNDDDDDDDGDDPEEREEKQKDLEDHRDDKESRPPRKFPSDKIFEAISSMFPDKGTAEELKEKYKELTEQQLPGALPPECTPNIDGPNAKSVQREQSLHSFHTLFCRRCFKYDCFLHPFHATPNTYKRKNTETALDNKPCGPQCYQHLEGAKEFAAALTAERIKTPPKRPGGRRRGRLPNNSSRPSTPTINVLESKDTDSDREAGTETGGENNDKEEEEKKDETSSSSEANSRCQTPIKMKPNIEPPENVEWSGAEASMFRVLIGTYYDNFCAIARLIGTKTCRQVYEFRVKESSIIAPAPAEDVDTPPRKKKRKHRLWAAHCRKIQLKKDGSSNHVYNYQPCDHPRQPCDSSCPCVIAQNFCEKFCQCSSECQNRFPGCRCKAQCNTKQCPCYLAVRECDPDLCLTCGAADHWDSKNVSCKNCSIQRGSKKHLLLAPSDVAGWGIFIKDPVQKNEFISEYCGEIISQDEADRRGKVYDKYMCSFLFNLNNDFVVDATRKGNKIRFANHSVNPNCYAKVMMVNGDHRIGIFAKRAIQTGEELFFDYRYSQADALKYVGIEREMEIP

Data set [2] is described as follows: Cmax in Swiss albino mouse plasma at 50 mg/kg,po and measured after 24 hrs. Type of data set: ADME, organism-based. Further details: time 24 hrs, dose 50 mg/kg, route po. As to conditions: in vivo.
Data set [3] in a line: Inhibition of GST-tagged […] human GLP (610 to 917 residues) methylation activity expressed in Escherichia coli BL21 assessed as reduction in H3K9me3 level using H3(1 to 20 residues)-cys-biotin and SAM as substrate incubated for 60 mins by Dissociation enhanced lanthanide fluoro-immuno assay.

Each structure is given as a SMILES string.

As to `CCCc1cc(C)[nH]c(=O)c1CNC(=O)c1cc(-c2ccc(N3CCN(C(C)C)CC3)nc2)cc2c1cnn2C(C)C`, in data set [1], the IC50 was < 0.01 µM. In data set [2], the maximum concentration (Cmax) turned out to be 4.7 µM.
`COc1cc2nc(N3CCCN(C)CC3)nc(NC3CCN(Cc4ccccc4)CC3)c2cc1OC`: in data set [3], the 50% inhibitory concentration (IC50) turned out to be 38 µM.
